Data set [1] addresses α-glucosidase enzyme (Saccharomyces cerevisiae, UniProt P53341). In kind it is biochemical. How it is done:
To find out the α-glucosidase inhibition, kinetic studies were carried out using different concentrations of the inhibitors (0.0624, 0.3, 0.125, 0.4 mM) and different concentrations of substrate inhibitor (p-nitrophenol R-D maltoside NMP). Samples of 0.1, 0.2, 0.4, 0.8, and 1.0 mM (0.2 mg/mL) concentration were prepared in de-ionized water with the enzyme. PIPES buffer was used to adjust the pH of the solution. This solution was incubated for 30 min at 25 °C and the absorbance was recorded on an ELISA reader in 96-well plates. Kinetic parameters like Vmax, AICs, Km, and R2 were calculated using sigma plot enzyme kinetic software.

α-glucosidase enzyme, sequence (P53341 whole entry): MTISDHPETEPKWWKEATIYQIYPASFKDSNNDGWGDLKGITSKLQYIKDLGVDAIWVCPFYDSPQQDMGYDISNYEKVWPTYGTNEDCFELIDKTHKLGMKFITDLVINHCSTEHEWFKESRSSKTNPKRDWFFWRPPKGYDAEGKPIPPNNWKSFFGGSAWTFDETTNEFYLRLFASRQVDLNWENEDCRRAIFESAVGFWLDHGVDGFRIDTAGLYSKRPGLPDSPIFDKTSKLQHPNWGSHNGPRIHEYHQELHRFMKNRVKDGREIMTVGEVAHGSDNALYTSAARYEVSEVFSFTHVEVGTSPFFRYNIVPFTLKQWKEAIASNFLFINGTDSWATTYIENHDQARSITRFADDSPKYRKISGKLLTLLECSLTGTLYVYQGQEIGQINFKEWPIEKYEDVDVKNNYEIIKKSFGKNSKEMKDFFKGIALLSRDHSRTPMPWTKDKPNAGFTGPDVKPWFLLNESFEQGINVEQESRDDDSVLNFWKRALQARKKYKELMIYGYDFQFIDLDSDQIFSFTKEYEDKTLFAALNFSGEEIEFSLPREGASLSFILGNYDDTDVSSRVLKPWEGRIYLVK

The molecule `COc1cccc(/C(Cn2nnc3ccccc32)=N\N=C\c2cc(Cl)cc(Cl)c2O)c1` [Compound 1, 2-((E)-(((E)-2-(1H-benzo[d][1,2, 3]triazol-1-yl)-1-(3-methoxyphenyl)ethylidene) hydrazono)methyl)-4,6-dichlorophenol] showed a melting point of 195 to 196 °C. Further, the “fold lower potency than compound (9)” value in data set [1] (comparator compound 9) was “four-fold”.
The molecule `COc1cccc(/C(Cn2nnc3ccccc32)=N\N=C\c2cccc([N+](=O)[O-])c2)c1` [Compound 2, 1-((E)-2-(3-methoxyphenyl)-2-(((E)-3-nitrobenzylidene)hydrazono)ethyl)-1H-benzo[d] [1,2, 3]triazole] returned a melting point of 192 to 193 °C. In addition, in data set [1] (comparator compound 12), the “fold lower potency than compound (12)” value is “two-fold”.
`O=[N+]([O-])c1cccc(/C=N/N=C(/Cn2nnc3ccccc32)c2ccc(Br)cc2)c1` [Compound 3, 1-((E)-2-(4-bromophenyl)-2-(((E)-3-nitrobenzylidene)hydrazono)ethyl)-1H-benzo[d] [1,2, 3]triazole] registered a melting point of 196 to 197 °C.
The molecule `Brc1ccc(/C(Cn2nnc3ccccc32)=N\N=C\c2c3ccccc3cc3ccccc23)cc1` [Compound 4, 1-((E)-2-(((E)-anthracen-9-ylmethylene)hydrazono)-2-(4-bromophenyl)ethyl)-1H-benzo[d] [1,2, 3]triazole] gave a melting point of 201 to 202 °C. Also, in data set [1], the “potency against α-glucosidase compared with standard acarbose (in words)” value is “less potent than standard acarbose”.
`Oc1c(Cl)cc(Cl)cc1/C=N/N=C(/Cn1nnc2ccccc21)c1ccc(Br)cc1` [Compound 5, 2-((E)-(((E)-2-(1H-benzo[d][1,2, 3]triazol-1-yl)-1-(4-bromophenyl)ethylidene) hydrazono)methyl)-4,6-dichlorophenol] displayed a melting point of 196 to 197 °C. In data set [1] (comparator scaffold 10), the “fold lowering of enzymatic activity relative to scaffold (10)” value is “four-fold”.
Regarding `O=[N+]([O-])c1ccc(/C=N/N=C(/Cn2nnc3ccccc32)c2ccc(Br)cc2)cc1` [Compound 6, 1-((E)-2-(4-bromophenyl)-2-(((E)-4-nitrobenzylidene)hydrazono)ethyl)-1H-benzo[d] [1,2, 3]triazole], the melting point was 196 to 197 °C. Also, the “potency relative to compound (3)” value in data set [1] (comparator compound 3) is recorded as “half”.
`Brc1ccc(/C(Cn2nnc3ccccc32)=N\N=C\c2ccc3ccccc3c2)cc1` [Compound 7, 1-((E)-2-(4-bromophenyl)-2-(((E)-naphthalen-2-ylmethylene)hydrazono)ethyl)-1H-benzo[d] [1,2, 3]triazole] displayed a melting point of 196 to 197 °C. Also, the “potency against α-glucosidase compared with standard acarbose (in words)” value in data set [1] is recorded as “less potent than standard acarbose”.
The matching figures for `O=Cc1ccc(/C=N/N=C(/Cn2nnc3ccccc32)c2ccc(Br)cc2)cc1` [Compound 8, 4-((E)-(((E)-2-(1H-benzo[d][1,2, 3]triazol-1-yl)-1-(4-bromophenyl)ethylidene) hydrazono)methyl)benzaldehyde]: 193 to 194 °C and “less potent than standard acarbose”.
With `O=[N+]([O-])c1cccc(/C(Cn2nnc3ccccc32)=N\N=C\c2cc(Cl)cc(Cl)c2O)c1` [Compound 9, 2-((E)-(((E)-2-(1H-benzo[d][1,2, 3]triazol-1-yl)-1-(3-nitrophenyl)ethylidene) hydrazono)methyl)-4,6-dichlorophenol], the melting point lay in the range of 197 to 198 °C. In addition, the “potency relative to standard acarbose (fold greater)” value in data set [1] (compared to standard acarbose) is listed as “nine-fold”.
With `O=[N+]([O-])c1ccc(/C(Cn2nnc3ccccc32)=N\N=C\c2cc(Cl)cc(Cl)c2O)cc1` [Compound 10, 2-((E)-(((E)-2-(1H-benzo[d][1,2, 3]triazol-1-yl)-1-(4-nitrophenyl)ethylidene) hydrazono)methyl)-4,6-dichlorophenol], the melting point fell in the range of 197 to 198 °C.
The same measure, in the same setting: the same measure for `O=[N+]([O-])c1ccc(/C(Cn2nnc3ccccc32)=N\N=C\c2cccc([N+](=O)[O-])c2)cc1` [Compound 11, 1-((E)-2-(((E)-3-nitrobenzylidene)hydrazono)-2-(4-nitrophenyl)ethyl)-1H-benzo[d] [1,2, 3]triazole]: 191 to 192 °C.
The molecule `O=[N+]([O-])c1ccc(/C=N/N=C(/Cn2nnc3ccccc32)c2ccc([N+](=O)[O-])cc2)cc1` [Compound 12, 1-((E)-2-(((E)-4-nitrobenzylidene)hydrazono)-2-(4-nitrophenyl)ethyl)-1H-benzo[d] [1,2, 3]triazole] showed a melting point of 191 to 192 °C. In addition, the “inhibition profile relative to scaffold (11)” value in data set [1] (comparator scaffold 11) is given as “half”.
With `Oc1c(Cl)cc(Cl)cc1/C=N/N=C(/Cn1nnc2ccccc21)c1ccc(Cl)cc1Cl` [Compound 13, 2-((E)-(((E)-2-(1H-benzo[d][1,2, 3]triazol-1-yl)-1-(2,4-dichlorophenyl)ethylidene) hydrazono)methyl)-4,6-dichlorophenol], the melting point lay in the range of 199 to 200 °C. Also, the “fold enhancement of α-glucosidase activity relative to compound (1)” value in data set [1] (comparator compound 1) is “three-fold”.
With `O=[N+]([O-])c1cccc(/C=N/N=C(/Cn2nnc3ccccc32)c2ccc(Cl)cc2Cl)c1` [Compound 14, 1-((E)-2-(2,4-dichlorophenyl)-2-(((E)-3-nitrobenzylidene)hydrazono)ethyl)-1H-benzo[d] [1,2, 3]triazole], the melting point is 194 to 195 °C.
The same measure, in the same setting: the same measure for `O=[N+]([O-])c1ccc(/C=N/N=C(/Cn2nnc3ccccc32)c2ccc(Cl)cc2Cl)cc1` [Compound 15, 1-((E)-2-(2,4-dichlorophenyl)-2-(((E)-4-nitrobenzylidene)hydrazono)ethyl)-1H-benzo[d] [1,2, 3]triazole]: 194 to 195 °C.
With `Clc1ccc(/C=N/N=C(/Cn2nnc3ccccc32)c2ccc(Br)cc2)cc1Cl` [Compound 17, 1-((E)-2-(4-bromophenyl)-2-(((E)-3,4-dichlorobenzylidene)hydrazono)ethyl)-1H-benzo[d] [1,2, 3]triazole], the melting point lay within 198 to 199 °C. Further, the “potency against α-glucosidase compared with standard acarbose (in words)” value in data set [1] is reported as “less potent than standard acarbose”.
Turning to `O=[N+]([O-])c1ccc(/C(Cn2nnc3ccccc32)=N\N=C\c2ccc(Cl)c(Cl)c2)cc1` [Compound 19, 1-((E)-2-(((E)-3,4-dichlorobenzylidene)hydrazono)-2-(4-nitrophenyl)ethyl)-1H-benzo[d] [1,2, 3]triazole], the melting point lay within 194 to 195 °C.
Still for that read-out and setting: the same measure for `O=[N+]([O-])c1ccc(/C(Cn2nnc3ccccc32)=N\N=C\c2ccc(O)cc2)cc1` [Compound 20, 4-((E)-(((E)-2-(1H-benzo[d][1,2, 3]triazol-1-yl)-1-(4-nitrophenyl)ethylidene) hydrazono)methyl)phenol]: 190 to 191 °C.

One may read the melting point as the temperature, or range, at which the solid turns liquid.

These data come from paper PMC9860641, “Synthesis, In Vitro α-Glucosidase Inhibitory Activity and Molecular Docking Study of New Benzotriazole-Based Bis-Schiff Base Derivatives” (Pharmaceuticals, 2022).
